Tested on: recombinant NL4-3 virus (Renilla luciferase in nef, Gag P373S)
Experiment: HIV cell culture assay (luciferase activity in MT-2 cells infected with NLRluc recombinant virus)
Assay type: cell-based
Conditions: NL43, MT-2 cells infected 4-5 days with NLRluc recombinant virus
Outline: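 Activity was read as luciferase output (Dual Luciferase reagents premixed with lysis solution) after 4–5 days of infection in serially diluted inhibitor. Host cells were MT-2 in 10% FBS RPMI. The reporter virus came from transfected 293T cells and was titered on MT-2.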

`C=C(C)[C@@H]1CC[C@]2(CNCCN3CCN(S(C)(=O)=O)CC3)CC[C@]3(C)[C@H](CC[C@@H]4[C@@]5(C)CC=C(c6ccc(C(=O)O)cc6)C(C)(C)[C@@H]5CC[C@]43C)[C@@H]12` [Example 179, 4-((1R,3aS,5aR,5bR,7aR,11aS,11bR,13aR,13bR)-5a,5b,8,8,11a-pentamethyl-3a-((2-(4-(methylsulfonyl)piperazin-1-yl)ethylamino)methyl)-1-(prop-1-en-2-yl)-2,3,3a,4,5,5a,5b,6,7,7a,8,11,11a,11b,12,13,13a,13b-octadecahydro-1H-cyclopenta[a]chrysen-9-yl)benzoic acid] gave an EC50 (class symbol) of under 100 nM.
`C=C(C)[C@@H]1CC[C@]2(CNCCOC)CC[C@]3(C)[C@H](CC[C@@H]4[C@@]5(C)CC=C(c6ccc(C(=O)O)cc6)C(C)(C)[C@@H]5CC[C@]43C)[C@@H]12` [Example 180, 4-((1R,3aS,5aR,5bR,7aR,11aS,11bR,13aR,13bR)-3a-((2-methoxyethylamino)methyl)-5a,5b,8,8,11a-pentamethyl-1-(prop-1-en-2-yl)-2,3,3a,4,5,5a,5b,6,7,7a,8,11,11a,11b,12,13,13a,13b-octadecahydro-1H-cyclopenta[a]chrysen-9-yl)benzoic acid] was tested, and the EC50 (class symbol) was under 100 nM.
For `C=C(C)[C@@H]1CC[C@]2(CNCCN3CCC(CO)CC3)CC[C@]3(C)[C@H](CC[C@@H]4[C@@]5(C)CC=C(c6ccc(C(=O)O)cc6)C(C)(C)[C@@H]5CC[C@]43C)[C@@H]12` [Example 181, 4-((1R,3aS,5aR,5bR,7aR,11aS,11bR,13aR,13bR)-3a-((2-(4-(hydroxymethyl)piperidin-1-yl)ethylamino)methyl)-5a,5b,8,8,11a-pentamethyl-1-(prop-1-en-2-yl)-2,3,3a,4,5,5a,5b,6,7,7a,8,11,11a,11b,12,13,13a,13b-octadecahydro-1H-cyclopenta[a]chrysen-9-yl)benzoic acid], the EC50 (numeric value) was 1 nM.
`C=C(C)[C@@H]1CC[C@]2(CN3CCOC3=O)CC[C@]3(C)[C@H](CC[C@@H]4[C@@]5(C)CC=C(c6ccc(C(=O)O)cc6)C(C)(C)[C@@H]5CC[C@]43C)[C@@H]12` [Example 182, 4-((1R,3aS,5aR,5bR,7aR,11aS,11bR,13aR,13bR)-5a,5b,8,8,11a-pentamethyl-3a-((2-oxooxazolidin-3-yl)methyl)-1-(prop-1-en-2-yl)-2,3,3a,4,5,5a,5b,6,7,7a,8,11,11a,11b,12,13,13a,13b-octadecahydro-1H-cyclopenta[a]chrysen-9-yl)benzoic acid] showed an EC50 (class symbol) of under 100 nM.
